# How the values were obtained:
# Assay type in all cases: cell-based
# [1] = test system: C. neo; assay: standardized in vitro susceptibility test, C. neo; settings: yes/no
# [2] = test system: Candida w/ FLu.; assay: standardized in vitro susceptibility test, Candida w/ FLu.; settings: with FLu.; yes/no
# [3] = test system: Asp; assay: standardized in vitro susceptibility test, Asp alone (MEC)
# [4] = test system: Asp/Caspo; assay: standardized in vitro susceptibility test, Asp/Caspo; settings: with Caspo
SMILES,Active C. neo [1],Active Candida w/ FLu. [2],Active Asp alone (MEC) ([3]; yes/no),Active Asp Caspo ([4]; yes/no),Active Asp Caspo ([4]; concentration),Active Asp alone (MEC) ([3]; MEC concentration)
CO[C@H]1C[C@@H](C)C/C(C)=C/[C@@H](C/C=C/c2ccc(C(=O)O)cc2)C(=O)C[C@H](O)[C@@H](C)[C@@H](/C(C)=C/[C@@H]2CC[C@@H](O)[C@H](OC)C2)OC(=O)[C@@H]2CCCCN2C(=O)C(=O)[C@]2(O)O[C@H]1[C@@H](OC)C[C@H]2C [Compound 2],yes,no,yes,Yes,,
CCCC/C=C/C[C@@H]1/C=C(\C)C[C@H](C)C[C@H](OC)[C@H]2O[C@@](O)(C(=O)C(=O)N3CCCC[C@H]3C(=O)O[C@H](/C(C)=C/[C@@H]3CC[C@@H](O)[C@H](OC)C3)[C@H](C)[C@@H](O)CC1=O)[C@H](C)C[C@@H]2OC [Compound 3],yes,yes,no,yes,4 µg/mL,
CCC(C)C/C=C/C[C@@H]1/C=C(\C)C[C@H](C)C[C@H](OC)[C@H]2O[C@@](O)(C(=O)C(=O)N3CCCC[C@H]3C(=O)O[C@H](/C(C)=C/[C@@H]3CC[C@@H](O)[C@H](OC)C3)[C@H](C)[C@@H](O)CC1=O)[C@H](C)C[C@@H]2OC (some centres unmarked) [Compound 4],yes,yes,no,yes,8 µg/mL,
CO[C@H]1C[C@@H](C)C/C(C)=C/[C@@H](C/C=C/CC(=O)O)C(=O)C[C@H](O)[C@@H](C)[C@@H](/C(C)=C/[C@@H]2CC[C@@H](O)[C@H](OC)C2)OC(=O)[C@@H]2CCCCN2C(=O)C(=O)[C@]2(O)O[C@H]1[C@@H](OC)C[C@H]2C [Compound 5],yes,yes,yes,yes,1 µg/mL,(8 ug/mL)

# From patent US11000514B2, “Antifungal compounds” (Duke University, priority 2014, dated 2021)
